Test results as given in patent US20110282066A1, “SCREENING METHOD FOR SUBSTANCE USEFUL AS AGENT FOR TREATING PROSTATE CANCER” (priority 2009, published 2011).

Legend:
[1] = test system: testosterone production in the CWR22R tumor; assay: Testosterone production suppression in the tumor of a CWR22R tumor-bearing mouse; assay type: in vivo, nude mouse; conditions: 22Rv1, 10 mg/kg oral, androstenedione 1 ng/100 mm^3 into the tumor an hour later, dissection an hour after that, read-out: Inh (%) testosterone production suppression rate
Text: Inhibition rate (%)=100×(average value of the hormone concentration in the solvent for administering test substance-administered group−average value of the hormone concentration in the test substance-administered group)/(average value of the hormone concentration in the solvent for administering test substance-administered group−average value of the background hormone concentration)
A CWR22R tumor was excised from a CWR22R subcutaneous tumor-bearing nude mouse. The excised tumor was segmented to become tumor specimens with size of about 5 mm per specimen. The tumor specimens were washed with a 20% serum-containing RPMI1640 culture medium twice and then stirred for about 20 minutes in a 0.1% protease and 20% serum-containing RPMI1640 culture medium. Supernatant was recovered to recover cells through centrifugation. These procedures were repeated as necessary, recovered cells were collected, and thereby the cell solution was prepared. After the cell number was counted, the cell solution was adjusted to 2×10^7 cells/mL. The same amount of the cell solution and Matrigel were mixed and adjusted to the final value of 1×10^7 cells/mL. 0.1 mL of the cell Matrigel mixture prepared in the above-described manner was subcutaneously injected to one site of the back of a male nude mouse with testectomy for the transplant. After the transplant, at a time point when the tumor volume reached 100 mm^3 or more, grouping was performed based on the tumor volume to conduct the following experiments.
Test substances were orally administered to the CWR22R subcutaneous tumor-bearing mouse. After an hour, that is, an hour before dissection, androstenedione was administered into the tumor to yield a level of 1 ng/100 mm^3 in the tumor. The composition of the liquid for administering androstenedione included 0.000075% DMF/0.00005% polysorbate 80/9.999875% saline/90% Matrigel. Tumor excision was performed through the dissection, and the tumor was weighed and then frozen for preservation. For the purpose of measuring the background value, the tumor of the mouse to which only the solvent for administering test substances had been orally administered was excised. Subsequently, under the ice cooling, the liquid for administering androstenedione was added thereto, and the resultant was subjected to quick-freezing for preservation.
To the tumor sample preserved through freezing was added a 0.2 M Na-K phosphate buffer (pH 7.4), and thereby a tumor homogenate was prepared under ice cooling by using a homogenizer (polytron). Tert-butyl methyl ether with a 6-fold capacity was added to the tumor homogenate, followed by centrifugation (3000 rpm, 5 min), and the supernatant was transferred to another test tube. While the test tube was maintained at 40° C. in a heat block, the solvent was evaporated by nitrogen gas. 2% BSA-containing 10 mM Tris-Cl buffer (pH 7.4) was added to the test tube and mixed to obtain an extract, and the testosterone concentration was measured by using DELFIA (trademark) Testosterone Reagents R050-201 (manufactured by PerkinElmer, Inc.).
The testosterone production suppression rates (%) of some Reference Example compounds in the tumor of CWR22R tumor-bearing mouse are shown in Table 25. Ex represents a Reference Example number, Inh represents the testosterone production suppression rates upon administration of 10 mg/kg of the Reference Example compounds.

human 17βHSD type 3 = biological target: T1, human 17βHSD type 3 (Homo sapiens, UniProt P37058); assay: Measurement of enzyme activity of human 17βHSD type 3; assay type: biochemical; conditions: enzyme source: supernatant of transformed 293 cells; read-out: Type3 IC50
T1 construct: A full-length cDNA encoding human 17βHSD type 3 used in the pharmacological test; made in house; host or cells: human fetus kidney-derived 293 cells (transfected; supernatant of disrupted cells, not purified)
T1 sequence (P37058 1-310): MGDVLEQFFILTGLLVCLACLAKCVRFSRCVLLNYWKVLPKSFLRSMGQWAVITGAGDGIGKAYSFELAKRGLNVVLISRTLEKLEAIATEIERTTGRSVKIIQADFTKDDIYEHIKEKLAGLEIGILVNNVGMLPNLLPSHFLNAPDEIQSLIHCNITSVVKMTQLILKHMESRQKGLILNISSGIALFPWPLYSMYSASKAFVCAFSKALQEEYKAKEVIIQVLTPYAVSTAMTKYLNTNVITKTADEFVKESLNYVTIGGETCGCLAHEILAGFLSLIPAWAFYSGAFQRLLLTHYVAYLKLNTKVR
Description: A full-length cDNA encoding human 17βHSD type 3 used in the pharmacological test of this test example was obtained by the PCR method using a cDNA derived from human testis as a template. The nucleotide sequence of the obtained cDNA was analyzed by the dideoxyterminator method, and the clone matched with the known human 17βHSD type 3 sequence (GenBank accession No. BC034281) was selected. Subsequently, human fetus kidney-derived cell line, 293 cells, were transformed with a plasmid containing the cDNA, and the cells were collected 24 hours later. […]
Enzyme activity was measured referring to Trevor M. Penning, et al., Biochem. J., 351, 67-77, (2000). Specifically, using a 100 mM potassium phosphate buffer (pH 6.0), (1) the enzyme purified in Section 1 at a final concentration of 10 μg/mL, (2) androstenedione at a final concentration of 300 nM, (3) NADPH at a final concentration of 200 μM, and (4) a test substance, were mixed to react at room temperature for 2 hours, and then the amount of testosterone produced was measured using DELFIA (trademark) Testosterone Reagents R050-201 (manufactured by PerkinElmer). […] Then, IC50 values were calculated by the Logistic regression method.

IC50 (human 17βHSD type 3) | SMILES | inhibition at 10 mg/kg [1]
– | COCCc1cn(-c2cccc(C(=O)O)c2)c2ccc(C(F)(F)F)cc12 [Reference Example 47, 3-[3-(2-methoxyethyl)-5-(trifluoromethyl)-1H-indol-1-yl]benzoic acid] | 33%
– | O=C(O)c1cccc(-n2c(C(F)(F)F)nc3cc(C(F)(F)F)ccc32)c1 [Reference Example 54, 3-[2,5-bis(trifluoromethyl)-1H-benzimidazol-1-yl]benzoic acid] | 99%
– | O=C(O)c1cccc(-n2c(-c3ccccc3)nc3cc(C(F)(F)F)ccc32)c1 [compound 17, 3-[2-phenyl-5-(trifluoromethyl)-1H-benzimidazol-1-yl]benzoic acid] | 75%
– | O=C(O)c1cccc(-n2cnc3cc(C(F)(F)F)ccc32)c1 [compound 20, 3-[5-(trifluoromethyl)-1H-benzimidazol-1-yl]benzoic acid] | 89%
– | Cc1nc2cc(C(F)(F)F)ccc2n1-c1cccc(C(=O)O)c1 [compound 21, 3-[2-methyl-5-(trifluoromethyl)-1H-benzimidazol-1-yl]benzoic acid] | 97%
– | CCCc1nc2cc(C(F)(F)F)ccc2n1-c1cccc(C(=O)O)c1 [compound 23, 3-[2-propyl-5-(trifluoromethyl)-1H-benzimidazol-1-yl]benzoic acid] | 96%
> 10 µM | COc1nc2cc(C(F)(F)F)ccc2n1-c1cccc(C(=O)O)c1 [compound 32, 3-[2-methoxy-5-(trifluoromethyl)-1H-benzimidazol-1-yl]benzoic acid] | –
– | Cc1cccc(-c2nc3cc(C(F)(F)F)ccc3n2-c2cccc(C(=O)O)c2)c1 [compound 36, 3-[2-(3-methylphenyl)-5-(trifluoromethyl)-1H-benzimidazol-1-yl]benzoic acid] | 45%
– | O=C(O)c1cccc(-n2c(Cc3ccccc3)nc3cc(C(F)(F)F)ccc32)c1 [compound 38, 3-[2-benzyl-5-(trifluoromethyl)-1H-benzimidazol-1-yl]benzoic acid] | 66%
– | O=C(O)c1cccc(-n2c(Cc3cccc(F)c3)nc3cc(C(F)(F)F)ccc32)c1 [compound 39, 3-[2-(3-fluorobenzyl)-5-(trifluoromethyl)-1H-benzimidazol-1-yl]benzoic acid] | 31%
– | O=C(O)c1cccc(-n2c(Cc3ccc(F)cc3)nc3cc(C(F)(F)F)ccc32)c1 [compound 40, 3-[2-(4-fluorobenzyl)-5-(trifluoromethyl)-1H-benzimidazol-1-yl]benzoic acid] | 49%
– | O=C(O)c1cccc(-n2c(Cc3ccc(Cl)cc3)nc3cc(C(F)(F)F)ccc32)c1 [compound 41, 3-[2-(4-chlorobenzyl)-5-(trifluoromethyl)-1H-benzimidazol-1-yl]benzoic acid] | 45%
> 10 µM | O=C(O)c1cccc(-n2c(COc3ccccc3)nc3cc(C(F)(F)F)ccc32)c1 [compound 44, 3-[2-phenoxymethyl-5-(trifluoromethyl)-1H-benzimidazol-1-yl]benzoic acid] | –
– | O=C(O)c1cccc(-n2c(COc3ccc(F)cc3)nc3cc(C(F)(F)F)ccc32)c1 [compound 45] | 94%
